Legend:
bacteria, yeast and mold = assay: Challenge test (preservation efficacy) in cleansing surfactant composition of Table 2a; assay type: cell-based; details: for challenge test / preservation efficacy test: 1.5% level in the same formulation, pH 5.5 and 7.0
From the text: In an embodiment several personal care compositions of various types have been tested for the preservation efficacy of the combination of N-capryloyl L-glutamine and glyceryl monoundecylenate using PCPC (Personal Care Products Council, Washington DC, formerly known as CTFA) protocol ('Evaluation of preservatives to protect cosmetics' by D. Orth in Cosmetics and Toiletries, March 91). […] Both ‘rinse-off’ and ‘leave-on’ formulations (Examples 5 to 10) passed the challenge tests. Using the typical surfactant composition two sets are prepared at different pHs, 5.5 and 7.0. Antimicrobials individually and in combination are tested for preservation efficacy. [table]

[1] = test system: Pseudomonas aeruginosa ATCC 15442; assay: Minimum inhibitory concentration (PCPC protocol); assay type: cell-based; details: Gram negative
Description: (§1) The MIC (minimum inhibitory concentrations) of N-capryloyl L-glutamine and glyceryl monoundecylenate and 1:1 mixture (by weight) of the two antimicrobials against various microbes are determined as per PCPC (Personal Care Product Council, Washington, USA) protocol.

[2] = test system: Aspergillus niger ATCC 16404; assay: Minimum inhibitory concentration (PCPC protocol); assay type: cell-based; details: Mold
Description: as §1

[3] = test system: Candida glabrata ATCC 66032; assay: Minimum inhibitory concentration (PCPC protocol); assay type: cell-based; details: Yeast
Description: as §1

[4] = test system: Staphylococcus epidermidis NCIM 2493; assay: Minimum inhibitory concentration (PCPC protocol); assay type: cell-based; details: Gram positive, b76: at skin pH of 5.5
Description: as §1

[5] = test system: Staphylococcus aureus ATCC 6538; assay: Minimum inhibitory concentration (PCPC protocol); assay type: cell-based; details: Gram positive; b76: at skin pH of 5.5
Description: as §1

[6] = test system: Micrococcus luteus NCIM 2103; assay: Minimum inhibitory concentration (PCPC protocol); assay type: cell-based; details: Gram positive
Description: as §1

[7] = test system: Corynebacterium xerosis ATCC 373; assay: Minimum inhibitory concentration (PCPC protocol); assay type: cell-based; details: Gram positive
Description: as §1

[8] = test system: Cutibacterium acnes ATCC 6919; assay: Minimum inhibitory concentration (PCPC protocol); assay type: cell-based; details: Gram positive
Description: as §1

[9] = test system: Gardnerella vaginalis ATCC 14018; assay: Minimum inhibitory concentration (PCPC protocol); assay type: cell-based; details: Gram variable
Description: as §1

[10] = test system: Staphylococcus hominis MTCC 8980; assay: Minimum inhibitory concentration (PCPC protocol); assay type: cell-based; details: Gram positive
Description: as §1

[11] = test system: Malassezia furfur ATCC 14521; assay: Minimum inhibitory concentration (PCPC protocol); assay type: cell-based; details: Yeast
Description: as §1

[12] = test system: Escherichia coli ATCC 8739; assay: Minimum inhibitory concentration (PCPC protocol); assay type: cell-based; details: Gram negative
Description: as §1

[13] = test system: Malassezia restricta ATCC MYA 4611; assay: Minimum inhibitory concentration (PCPC protocol); assay type: cell-based; details: Yeast
Description: as §1

[14] = test system: Burkholderia cepacia ATCC 25416; assay: Minimum inhibitory concentration (PCPC protocol); assay type: cell-based; details: Gram negative
Description: as §1

[15] = test system: Candida albicans ATCC 10231; assay: Minimum inhibitory concentration (PCPC protocol); assay type: cell-based; details: Yeast
Description: as §1

Malassezia yeast = assay: Minimum inhibitory concentration, Malassezia yeast; assay type: cell-based; details: species not given
Description: as §1

[16] = Biodegradability, OECD 301D-Closed Bottle Test
From the text: N-capryloyl L-glutamine and glyceryl monoundecylenate, derived from renewable sources, are compatible with most used ingredients of the personal care compositions.

[17] = antimicrobial 1.5% in total in cleansing formulation of Table 2a, pH 5.5
[18] = antimicrobial 1.5% in total in cleansing formulation of Table 2a, pH 7.0
[19] = antimicrobial 2.0% in cleansing formulation of Table 2a, pH 5.5
[20] = antimicrobial 2.0% in total in cleansing formulation of Table 2a, pH 7.0
[21] = deployed alone at 2% in the surfactant composition, at both acidic and neutral pH (5.5 and 7.0)

MIC in % Pseudomonas aeruginosa ATCC 15442 [1]	MIC in % Aspergillus niger ATCC 16404 [2]	MIC in % Candida glabrata ATCC 66032 [3]	MIC in % Staphylococcus epidermidis NCIM 2493 [4]	MIC in % Staphylococcus aureus ATCC 6538 [5]	MIC in % Micrococcus luteus NCIM 2103 [6]	MIC in % Corynebacterium xerosis ATCC 373 [7]	MIC in % Cutibacterium acnes ATCC 6919 [8]	MIC in % Gardnerella vaginalis ATCC 14018 [9]	MIC in % Staphylococcus hominis MTCC 8980 [10]	MIC in % Malassezia furfur ATCC 14521 [11]	MIC in % Escherichia coli ATCC 8739 [12]	MIC in % Malassezia restricta ATCC MYA 4611 [13]	MIC in % Burkholderia cepacia ATCC 25416 [14]	SMILES	challenge test / preservation efficacy test (bacteria, yeast and mold)	Challenge Test (bacteria, yeast and mold; [17])	Challenge Test (bacteria, yeast and mold; [18])	Challenge Test (bacteria, yeast and mold; [19])	Challenge Test (bacteria, yeast and mold; [20])	Challenge Test (bacteria, yeast and mold; [21])	also measured
0.7%	1%	0.6%	0.9%	0.3%	0.5%	0.5%	0.2%	0.6%	0.6%	0.3%	0.7%	0.4%	1%	CCCCCCCC(=O)N[C@@H](CCC(N)=O)C(=O)O [CG, N-capryloyl L-glutamine]	fail to pass the challenge test	Passes	Fails	Passes	Passes	preserve the composition	MIC in % Staphylococcus epidermidis NCIM 2493 ([4]; listed as N-capryloyl L-glutamine): 1.0%; MIC in % Candida albicans ATCC 10231 [15]: 0.6%; MIC against Malassezia yeast (Malassezia yeast): 0.2%; biodegradability as per OECD 301D-Closed Bottle Test [16]: completely biodegradable
1%	0.8%	0.4%	1%	0.1%	0.5%	0.5%	0.9%	0.3%	0.7%	0.2%	1%	0.2%	1%	C=CCCCCCCCCC(=O)OCC(O)CO (stereo not shown) [GMU, glyceryl monoundecylenate]	fail to pass the challenge test	Fails	Fails	Passes	Passes	preserve the composition	MIC in % Staphylococcus epidermidis NCIM 2493 ([4]; listed as glyceryl mono undecylenate): 1.0%; MIC in % Staphylococcus epidermidis NCIM 2493 ([4]; listed as glyceryl monoundecylenate): 0.9%; MIC in % Candida albicans ATCC 10231 [15]: 1%; MIC against Malassezia yeast (Malassezia yeast): 0.2%; biodegradability as per OECD 301D-Closed Bottle Test [16]: completely biodegradable

From patent US20250099356A1, “PERSONAL CARE COMPOSITION WITH N-CAPRYLOYL L-GLUTAMINE AND GLYCERYL MONOUNDECYLENATE AS PRESERVATIVE” (GALAXY SURFACTANTS LTD., priority 2024, published 2025)
